Data set [1] concerns INS1. Description: Cytotoxicity against rat INS1 cells assessed as cell viability at 1 to 10 uM measured after 24 hrs by MTT assay. The class given is cell-based. Conditions: ins1, 24 h, dose 1-10 µM. (Tetrazolium assays rely on reduction of a dye to a coloured formazan, in cell work by metabolically active cells.)
Data set [2] deals with INS1. Put plainly: Induction of insulin secretion in rat INS1 cells assessed as increase in phosphorylation of AKT at Ser 473 at 2.5 uM measured after 24 hrs by western blot assay. The data set is classed as functional, cell-based.
In data set [3] the test system is INS1. Description: Induction of insulin secretion in rat INS1 cells assessed as increase in phosphorylation of PI3K at 2.5 uM measured after 24 hrs by western blot assay. The class given is functional, cell-based.
Data set [4] deals with INS1. Put plainly: Stimulation of glucose stimulated insulin secretion in rat INS1 cells assessed as glucose stimulation index at 5 uM in presence of glucose measured after 1 hr. The data set is classed as functional.
Data set [5] deals with INS1. Description: Induction of insulin secretion in rat INS1 cells assessed as increase in PDX-1 expression at 2.5 uM measured after 24 hrs by western blot assay. The data set is classed as functional, cell-based. In general terms: In western blotting, separated proteins are transferred to a membrane and probed.
For data set [6], the system named is INS1. Description: Induction of insulin secretion in rat INS1 cells assessed as increase in phosphorylation of IRS 2 at Ser 731 at 2.5 uM measured after 24 hrs by western blot assay. The class given is functional, cell-based.
Data set [7] concerns INS1. Put plainly: Induction of insulin secretion in rat INS1 cells assessed as increase in AKT expression at 2.5 uM measured after 24 hrs by western blot assay. The data set is classed as functional, cell-based.
The test system of data set [8] is INS1. Put plainly: Induction of insulin secretion in rat INS1 cells assessed as increase in PI3K expression at 2.5 uM measured after 24 hrs by western blot assay. The class given is functional, cell-based.
The test system of data set [9] is INS1. Put plainly: Induction of insulin secretion in rat INS1 cells assessed as increase in IRS-2 expression at 2.5 uM measured after 24 hrs by western blot assay. The class given is functional, cell-based.
Data set [10] relates to INS1. Description: Stimulation of glucose stimulated insulin secretion in rat INS1 cells assessed as glucose stimulation index at 2.5 uM in presence of glucose measured after 1 hr. The class given is functional.
For data set [11], the system named is INS1. Put plainly: Cytotoxicity against rat INS1 cells assessed as cell viability at 10 uM measured after 24 hrs by MTT assay. The data set is classed as cell-based. To be noted: ins1, 24 h.
For data set [12], the system named is INS1. Put plainly: Induction of insulin secretion in rat INS1 cells assessed as increase in phosphorylation of PI3K at 5 uM measured after 24 hrs by western blot assay. The class given is functional, cell-based.
Data set [13] concerns INS1. Put plainly: Induction of insulin secretion in rat INS1 cells assessed as increase in phosphorylation of IRS 2 at Ser 731 at 5 uM measured after 24 hrs by western blot assay. The data set is classed as functional, cell-based.
Data set [14] has as its system INS1. Put plainly: Induction of insulin secretion in rat INS1 cells assessed as increase in phosphorylation of AKT at Ser 473 at 5 uM measured after 24 hrs by western blot assay. The class given is functional, cell-based.
The test system of data set [15] is INS1. Description: Induction of insulin secretion in rat INS1 cells assessed as increase in PI3K expression at 5 uM measured after 24 hrs by western blot assay. The class given is functional, cell-based.
The subject of data set [16] is INS1. Description: Induction of insulin secretion in rat INS1 cells assessed as increase in IRS-2 expression at 5 uM measured after 24 hrs by western blot assay. The class given is functional, cell-based.
The subject of data set [17] is INS1. Description: Induction of insulin secretion in rat INS1 cells assessed as increase in AKT expression at 5 uM measured after 24 hrs by western blot assay. The class given is functional, cell-based.
Data set [18] relates to INS1. Description: Induction of insulin secretion in rat INS1 cells assessed as increase in PDX-1 expression at 5 uM measured after 24 hrs by western blot assay. The class given is functional, cell-based.

The structures appear in SMILES notation. Active and inactive are the calls of the source. No cut-off for these calls is given here.

With `COC(=O)[C@@H]1CCC(=O)N1`, the Activity result in the data set on INS1 [1] is “Non-Toxic”.

With `C[C@@H](C(=O)O)[C@H]1CCO[C@]1(C)O`, in the data set with INS1 [1], the Activity result is given as “Non-Toxic”.

For the compound `O=Cc1coc2ccccc12`, the Activity result with INS1 [1] is given as “Non-Toxic”.

For the compound `O=C1CC[C@@H](O)N1`, the outcome with INS1 [2], in the data set on INS1 [3], in the data set with INS1 [5], in the data set on INS1 [6], in the data set on INS1 [7] and with INS1 [8] was Active. In the data set on INS1 [9], the outcome was Active. Also, the results for the Activity_index in the data set on INS1 [4] and in the data set with INS1 [10] were 11.31 and 6.57, respectively. Further, in the data set on INS1 [1], the Activity result was “Non-Toxic”.

Consider `Cc1ccc(S(=O)(=O)NC(=O)NN2CC3CCCC3C2)cc1` (configuration not stated) [GLICLAZIDE], for which the Activity_index in the data set with INS1 [4] came out at 3.47; with INS1 [10] it was 2.46. For the same compound, the Activity entry in the data set on INS1 [11] is on record as “Toxic”.

`c1ccc2[nH]ccc2c1` [INDOLE]: the outcome in the data set on INS1 [12], with INS1 [13], in the data set on INS1 [14], with INS1 [15], in the data set on INS1 [16] and in the data set with INS1 [17] was Active. The outcome with INS1 [18] was Active. For the same compound, the Activity_index came out at 7.72 with INS1 [4] and 3.31 in the data set on INS1 [10]. The Activity entry with INS1 [1] is reported as “Non-Toxic”.

As to `CC1(C)C[C@H](O)C[C@@]2(C)OC(=O)C=C12` [LOLIOLIDE], the Activity entry in the data set with INS1 [1] is given as “Non-Toxic”.

The values above are taken from ChEMBL document CHEMBL4834443, “Identification of bioactive compounds from mulberry enhancing glucose-stimulated insulin secretion” (Bioorg Med Chem Lett, 2021).
